Results as given in the NIST ThermoML archive (doi:10.1016/j.jct.2006.08.009).
Numbers after ± are expanded uncertainties.

Test: mn = molality of the nth substance listed, in mol/kg
Conditions: 350 kPa, Liquid; for apparent molar heat capacity: Extra sensitive DSC

## OC[C@@H](O)[C@@H](O)[C@@H](O)CO [SRS-1,2,3,4,5-pentanepentol] + O
318.15 K, m1 = 0.5092
  mass density: 1013.36 ± 0.2 kg/m3
318.15 K, m1 = 0.9969
  mass density: 1033.3 ± 0.24 kg/m3
318.15 K, m1 = 1.998
  mass density: 1069.71 ± 0.31 kg/m3
318.15 K, m1 = 3.177
  mass density: 1102.66 ± 0.38 kg/m3
323.15 K, m1 = 0.0196
  apparent molar heat capacity: 412.3 ± 42 J/K/mol
323.15 K, m1 = 0.0506
  apparent molar heat capacity: 405.8 ± 17 J/K/mol
323.15 K, m1 = 0.1042
  apparent molar heat capacity: 408.7 ± 8.8 J/K/mol
323.15 K, m1 = 0.2591
  apparent molar heat capacity: 408.1 ± 4.6 J/K/mol
323.15 K, m1 = 0.5092
  apparent molar heat capacity: 407.6 ± 3.3 J/K/mol
323.15 K, m1 = 0.9969
  apparent molar heat capacity: 406.7 ± 2.9 J/K/mol
323.15 K, m1 = 1.998
  apparent molar heat capacity: 403.3 ± 2.7 J/K/mol
323.15 K, m1 = 3.177
  apparent molar heat capacity: 402.8 ± 2.6 J/K/mol
328.15 K, m1 = 0.0196
  apparent molar heat capacity: 415.7 ± 41 J/K/mol
  mass density: 986.75 ± 0.2 kg/m3
328.15 K, m1 = 0.0506
  apparent molar heat capacity: 409.7 ± 17 J/K/mol
  mass density: 988.19 ± 0.19 kg/m3
328.15 K, m1 = 0.1042
  apparent molar heat capacity: 412.7 ± 8.7 J/K/mol
  mass density: 990.72 ± 0.19 kg/m3
328.15 K, m1 = 0.2591
  apparent molar heat capacity: 412.2 ± 4.4 J/K/mol
  mass density: 997.84 ± 0.17 kg/m3
328.15 K, m1 = 0.5092
  apparent molar heat capacity: 411.6 ± 3.3 J/K/mol
  mass density: 1008.63 ± 0.19 kg/m3
328.15 K, m1 = 0.9969
  apparent molar heat capacity: 410.7 ± 2.7 J/K/mol
  mass density: 1028.38 ± 0.23 kg/m3
328.15 K, m1 = 1.998
  apparent molar heat capacity: 407.3 ± 2.5 J/K/mol
  mass density: 1064.46 ± 0.3 kg/m3
328.15 K, m1 = 3.177
  apparent molar heat capacity: 406.7 ± 2.5 J/K/mol
  mass density: 1097.15 ± 0.37 kg/m3
333.15 K, m1 = 0.0196
  apparent molar heat capacity: 419.1 ± 41 J/K/mol
333.15 K, m1 = 0.0506
  apparent molar heat capacity: 413.4 ± 16 J/K/mol
333.15 K, m1 = 0.1042
  apparent molar heat capacity: 416.3 ± 8.7 J/K/mol
333.15 K, m1 = 0.2591
  apparent molar heat capacity: 415.8 ± 4.5 J/K/mol
333.15 K, m1 = 0.5092
  apparent molar heat capacity: 415.3 ± 3.3 J/K/mol
333.15 K, m1 = 0.9969
  apparent molar heat capacity: 414.3 ± 2.7 J/K/mol
333.15 K, m1 = 1.998
  apparent molar heat capacity: 410.9 ± 2.5 J/K/mol
333.15 K, m1 = 3.177
  apparent molar heat capacity: 410.3 ± 2.5 J/K/mol
338.15 K, m1 = 0.0196
  apparent molar heat capacity: 422.2 ± 40 J/K/mol
  mass density: 981.58 ± 0.21 kg/m3
338.15 K, m1 = 0.0506
  apparent molar heat capacity: 416.9 ± 16 J/K/mol
  mass density: 983.05 ± 0.21 kg/m3
338.15 K, m1 = 0.1042
  apparent molar heat capacity: 419.6 ± 8.6 J/K/mol
  mass density: 985.54 ± 0.2 kg/m3
338.15 K, m1 = 0.2591
  apparent molar heat capacity: 419.2 ± 4.5 J/K/mol
  mass density: 992.64 ± 0.19 kg/m3
338.15 K, m1 = 0.5092
  apparent molar heat capacity: 418.6 ± 3.2 J/K/mol
  mass density: 1003.33 ± 0.18 kg/m3
338.15 K, m1 = 0.9969
  apparent molar heat capacity: 417.6 ± 2.7 J/K/mol
  mass density: 1022.96 ± 0.22 kg/m3
338.15 K, m1 = 1.998
  apparent molar heat capacity: 414.3 ± 2.5 J/K/mol
  mass density: 1058.79 ± 0.29 kg/m3
338.15 K, m1 = 3.177
  apparent molar heat capacity: 413.6 ± 2.5 J/K/mol
  mass density: 1091.26 ± 0.36 kg/m3
343.15 K, m1 = 0.0196
  apparent molar heat capacity: 424.8 ± 40 J/K/mol
343.15 K, m1 = 0.0506
  apparent molar heat capacity: 420 ± 16 J/K/mol
343.15 K, m1 = 0.1042
  apparent molar heat capacity: 422.7 ± 8.5 J/K/mol
343.15 K, m1 = 0.2591
  apparent molar heat capacity: 422.2 ± 4.4 J/K/mol
343.15 K, m1 = 0.5092
  apparent molar heat capacity: 421.6 ± 3.2 J/K/mol
343.15 K, m1 = 0.9969
  apparent molar heat capacity: 420.6 ± 2.7 J/K/mol
343.15 K, m1 = 1.998
  apparent molar heat capacity: 417.3 ± 2.5 J/K/mol
343.15 K, m1 = 3.177
  apparent molar heat capacity: 416.5 ± 2.5 J/K/mol
348.15 K, m1 = 0.0196
  apparent molar heat capacity: 427.6 ± 40 J/K/mol
  mass density: 975.89 ± 0.22 kg/m3
348.15 K, m1 = 0.0506
  apparent molar heat capacity: 422.8 ± 16 J/K/mol
  mass density: 977.36 ± 0.22 kg/m3
348.15 K, m1 = 0.1042
  apparent molar heat capacity: 425.4 ± 8.5 J/K/mol
  mass density: 979.79 ± 0.21 kg/m3
348.15 K, m1 = 0.2591
  apparent molar heat capacity: 424.9 ± 4.4 J/K/mol
  mass density: 986.84 ± 0.2 kg/m3
348.15 K, m1 = 0.5092
  apparent molar heat capacity: 424.3 ± 3.2 J/K/mol
  mass density: 997.49 ± 0.18 kg/m3
348.15 K, m1 = 0.9969
  apparent molar heat capacity: 423.3 ± 2.7 J/K/mol
  mass density: 1017.01 ± 0.21 kg/m3
348.15 K, m1 = 1.998
  apparent molar heat capacity: 420.1 ± 2.5 J/K/mol
  mass density: 1052.65 ± 0.28 kg/m3
348.15 K, m1 = 3.177
  apparent molar heat capacity: 419.3 ± 2.5 J/K/mol
  mass density: 1084.97 ± 0.35 kg/m3
353.15 K, m1 = 0.0196
  apparent molar heat capacity: 429.6 ± 40 J/K/mol
353.15 K, m1 = 0.0506
  apparent molar heat capacity: 424.8 ± 16 J/K/mol
353.15 K, m1 = 0.1042
  apparent molar heat capacity: 427.8 ± 8.4 J/K/mol
353.15 K, m1 = 0.2591
  apparent molar heat capacity: 427.3 ± 4.4 J/K/mol
353.15 K, m1 = 0.5092
  apparent molar heat capacity: 426.7 ± 3.2 J/K/mol
353.15 K, m1 = 0.9969
  apparent molar heat capacity: 425.7 ± 2.7 J/K/mol
353.15 K, m1 = 1.998
  apparent molar heat capacity: 422.6 ± 2.5 J/K/mol
353.15 K, m1 = 3.177
  apparent molar heat capacity: 421.8 ± 2.5 J/K/mol
358.15 K, m1 = 0.0196
  apparent molar heat capacity: 431.8 ± 40 J/K/mol
  mass density: 969.65 ± 0.24 kg/m3
358.15 K, m1 = 0.0506
  apparent molar heat capacity: 426.7 ± 16 J/K/mol
  mass density: 971.12 ± 0.23 kg/m3
358.15 K, m1 = 0.1042
  apparent molar heat capacity: 430.1 ± 8.4 J/K/mol
  mass density: 973.52 ± 0.23 kg/m3
358.15 K, m1 = 0.2591
  apparent molar heat capacity: 429.5 ± 4.4 J/K/mol
  mass density: 980.54 ± 0.21 kg/m3
358.15 K, m1 = 0.5092
  apparent molar heat capacity: 428.9 ± 3.2 J/K/mol
  mass density: 991.18 ± 0.19 kg/m3
358.15 K, m1 = 0.9969
  apparent molar heat capacity: 427.9 ± 2.6 J/K/mol
  mass density: 1010.61 ± 0.19 kg/m3
358.15 K, m1 = 1.998
  apparent molar heat capacity: 424.9 ± 2.5 J/K/mol
  mass density: 1046.1 ± 0.27 kg/m3
358.15 K, m1 = 3.177
  apparent molar heat capacity: 424 ± 2.3 J/K/mol
  mass density: 1078.29 ± 0.33 kg/m3
363.15 K, m1 = 0.0196
  apparent molar heat capacity: 433.8 ± 40 J/K/mol
363.15 K, m1 = 0.0506
  apparent molar heat capacity: 427.7 ± 16 J/K/mol
363.15 K, m1 = 0.1042
  apparent molar heat capacity: 431.7 ± 8.5 J/K/mol
363.15 K, m1 = 0.2591
  apparent molar heat capacity: 431.2 ± 4.4 J/K/mol
363.15 K, m1 = 0.5092
  apparent molar heat capacity: 430.7 ± 3.2 J/K/mol
363.15 K, m1 = 0.9969
  apparent molar heat capacity: 429.8 ± 2.6 J/K/mol
363.15 K, m1 = 1.998
  apparent molar heat capacity: 426.9 ± 2.5 J/K/mol
363.15 K, m1 = 3.177
  apparent molar heat capacity: 425.9 ± 2.3 J/K/mol
368.15 K, m1 = 0.0196
  mass density: 962.93 ± 0.25 kg/m3
368.15 K, m1 = 0.0506
  mass density: 964.44 ± 0.25 kg/m3
368.15 K, m1 = 0.1042
  mass density: 966.8 ± 0.24 kg/m3
368.15 K, m1 = 0.2591
  mass density: 973.76 ± 0.23 kg/m3
368.15 K, m1 = 0.5092
  mass density: 984.4 ± 0.21 kg/m3
368.15 K, m1 = 0.9969
  mass density: 1003.76 ± 0.18 kg/m3
368.15 K, m1 = 1.998
  mass density: 1039.13 ± 0.26 kg/m3
368.15 K, m1 = 3.177
  mass density: 1071.22 ± 0.32 kg/m3
